Read-outs that look alike come from different tables or passages of the source.
How the values were obtained:
recombinant CCBL1 (KAT1) = biological target: T1, recombinant CCBL1 (KAT1) (Homo sapiens, UniProt Q16773); test: Screening of KAT1 (CCBL1) inhibitory activity, L-kynurenine fluorescence assay; type: biochemical; settings: for inhibition at 10 µM: 10 μM of the compound, 1 mM L-kynurenine, room temperature 2 hours; for CCBL1 (KAT1) inhibitory activity, in words: screening result
T1 construct: made in house; host or cells: Sf9 insect cells (baculovirus)
T1 sequence (Q16773 1-422): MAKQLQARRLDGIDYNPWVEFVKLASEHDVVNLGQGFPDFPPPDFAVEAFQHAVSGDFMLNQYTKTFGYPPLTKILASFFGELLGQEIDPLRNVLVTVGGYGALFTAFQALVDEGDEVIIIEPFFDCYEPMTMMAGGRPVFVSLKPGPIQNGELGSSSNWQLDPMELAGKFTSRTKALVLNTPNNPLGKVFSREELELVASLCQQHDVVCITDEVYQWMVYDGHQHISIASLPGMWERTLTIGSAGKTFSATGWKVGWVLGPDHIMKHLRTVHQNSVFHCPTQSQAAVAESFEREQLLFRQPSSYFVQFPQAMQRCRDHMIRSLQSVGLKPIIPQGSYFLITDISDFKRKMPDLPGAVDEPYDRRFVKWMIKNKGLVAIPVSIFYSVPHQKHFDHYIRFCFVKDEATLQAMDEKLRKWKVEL
Method: (§1) Sf9 cells infected with baculovirus containing human CCBL1 gene were centrifuged and thereby pelletized and dissolved in 50 mM phosphate buffer solution (pH 8.0) containing 300 mM NaCl and 10 mM imidazole. After ultrasonic treatment, the cell lysate was centrifuged at 10,000×g at 4° C. for 20 minutes, and recombinant CCBL1 in the supernatant was added to a pre-equalized Ni-NTA resin (QIAGEN). An enzyme/resin composite was transferred to a column and washed with a buffer solution containing 300 mM NaCl and 20 mM imidazole in 50 mM phosphate buffer solution (pH 8.0), and recombinant CCBL1 was eluted with a buffer solution (pH 8.0) containing 300 mM NaCl, 250 mM imidazole, and 50 mM phosphate. The enzyme fraction was pooled based on the purity determined by using SDS-PAGE and desalted by using a PD-10 column (GE Healthcare, U.K.)
The CCBL1 inhibitory compound was obtained by screening KAT1 inhibitory activity of compounds included in a compound library (The Spectrum Collection) provided by Center for Supporting Drug Discovery and Life Science Research in Graduate School of Pharmaceutical Sciences, Osaka University. Here, 10 ng/μl recombinant CCBL, 1 mM L-kynurenine, 1 mM sodium pyruvate, 100 μM PLP, and 0.005% Tween 20 mixture solution contained in 150 mM of 2-amino-2-methyl-1-propanol buffer solution were added to a 384-well plate containing 10 μM of the compound and then incubated at room temperature for 2 hours. Subsequently, 20 μL of 300 mM zinc acetate solution was added thereto, and the fluorescent intensities at an excitation wavelength 340 nm and a fluorescent wavelength 460 nm were measured by Infinite M1000 plate reader (TECAN). The Control without containing the compound was defined as reaction 100%, the Background without containing any enzyme was defined as reaction 0%, and the inhibitory activity of the compound (Sample) was calculated based on the following equation.

recombinant human CCBL1 = biological target: T2, recombinant human CCBL1 (Homo sapiens, UniProt Q16773); test: Inhibition of CCBL1 beta-elimination activity by compound; type: biochemical; settings: recombinant human CCBL1, compound at different concentrations
T2 construct: made in house; host or cells: Sf9 insect cells (baculovirus)
T2 sequence (Q16773 1-422): T1 sequence (Q16773 1-422)
Method: as §1
The beta-elimination activity of CCBL1 was measured in accordance with a method described in “Arun Kumar Selvam et al., “A Novel Assay Method to Determine the—Elimination of Se-Methylselenocysteine to Monomethylselenol by Kynurenine Amino transferase 1” Antioxidants 2020, 9, 139; doi: 10. 3390/antiox 9020139″. […] Subsequently, 70 μL of the assay mixture was incubated at 37° C. for 10 minutes, 130 μL of 1M NaOH was added thereto, and the increase in the absorbance at 520 nm was measured by using a spectrophotometer (Nivo Multiplate Microplate Reader, PerkinElmer). […]

[1] = system: cisplatin-induced kidney injury model mice; test: Cisplatin-induced kidney injury model mouse; settings: for BUN level in serum / Cre level in serum: compound 25, 50, 100 mg/kg i.p. 30 minutes before cisplatin 20 mg/kg, third day
Method: (§5) To create cisplatin-induced kidney injury model mice, cisplatin (20 mg/kg) was administered once by intraperitoneal administration to male C57BL/6J mice with the body weight of 20 to 25 g (Japan SLC). To examine the kidney protection effect (prophylactic effect) of the compounds expressed by formulae (2) and (3) (hereafter, simply referred to as “compound”) on a cisplatin-induced kidney injury, the compound was intraperitoneally administered with doses of 0, 25, 50, and 100 mg/kg 30 minutes before the cisplatin injection. The mice were sacrificed on the third day after the cisplatin injection. Samples of the blood and the kidneys were taken and preserved at −80° C. for further analysis.
(§6) The levels of creatinine (Cre) and blood urea nitrogen (BUN) in serum were measured by using a fully automated blood biochemistry analyzer (BioMajesty JCA-BM9130) in accordance with a manufacturer-instructed method.

[2] = system: tumor allograft model mice; test: Tumor allograft model mouse (Lewis lung cancer cells); type: in vivo
Method: Tumors were measured by using vernier calipers, and tumor volumes were calculated as a product of length by width by width. After the tumor reached a certain size, the compound (100 mg/kg) was intraperitoneally administered 30 minutes before the intraperitoneal administration of 20 mg/kg of cisplatin.
Renal tubular damage was scored as follows.

[3] = system: CCBL1 overexpressed LLC/PK1 cells; test: Cell viability assay, cisplatin-induced renal tubular cell death; type: cell-based; settings: 24 hours
Method: (§2) LLC/PK1 (pig kidney epithelium), LLC (Lewis lung cancer), and MDA-MB-231 (human breast cancer) cells were obtained from JCRB cell bank (Japan). The LLC/PK1 cells were transfected by a human CCBL1 expression vector, CCBL1 stable overexpression cells were cloned into CCBL1 overexpressed LLC/PK1 cells, which were used for further experiments. The CCBL1 overexpressed LLC/PK1 cells were proliferated in 199/EBSS culture medium (10% FBS, 1% penicillin/streptomycin, and 400 μg/ml of G418), and LLC and MDA-MB-231 cells were proliferated at 37° C. under humidified atmosphere of 5% CO2 in DMEM culture medium (10% FBS and 1% penicillin/streptomycin).
(§3) A cell viability assay kit was used to measure the cell viability. […] The absorbance at 490 nm was measured by using a microplate reader (Molecular Devices, USA). The cell viability was calculated as a value of the absorbance of treated cells relative to the absorbance of untreated cells.
(§4) To examine whether or not the compound X prevents cisplatin-induced renal uriniferous tubular cell death, CCBL1 overexpressed LLC/PK1 cells were treated with different concentrations of cisplatin and the compound X for 24 hours, and the cell viability was evaluated by cell proliferation assay. The expression amount of human CCBL1 in LLC-PK1 cells was determined by immunoblotting. […]

[4] = system: cisplatin-induced kidney injury model mice; settings: mouse, in vivo
Method: as §5, §6

[5] = system: Lewis lung cancer cell lines (LLC cells); test: Cell viability assay, cisplatin-induced tumor cell death; type: cell-based; settings: with cisplatin, 24 hours
Method: as §2, §3, §4

[6] = system: human breast cancer cell lines (MDA-MB-231 cells); test: as above; type: cell-based; settings: with cisplatin, 24 hours
Method: as §2, §3, §4

[7] = cisplatin 20 mg/kg i.p. alone, tumor-bearing mice
[8] = compound and cisplatin versus cisplatin alone
[9] = both cisplatin and compound administered
[10] = compound plus cisplatin, tumor-bearing mice

COc1cc(O)c(C(C)=O)c(O)c1 [4-O-METHYLPHLORACETOPHENONE, 4-O-methylphloracetophenone, reference compound]
inhibition at 10 µM (recombinant CCBL1 (KAT1)): 5.6%
CCBL1 (KAT1) inhibitory activity, in words (recombinant CCBL1 (KAT1)): exhibits little CCBL1 inhibitory activity

CCC(=O)c1c(O)cc(O)cc1O [FLOPROPIONE, 1-(2,4,6-trihydroxyphenyl) propan-1-one]
inhibitory activity to CCBL1 β elimination activity (recombinant human CCBL1): inhibited by flopropione in a concentration dependent manner
BUN level in serum [1]: reduced Cre and BUN in a dose dependent manner
Cre level in serum [1]: reduced Cre and BUN in a dose dependent manner
BUN level in serum, compound administered alone ([1]; compound alone, no cisplatin): no change was found in the Cre and BUN levels
Cre level in serum, compound administered alone ([1]; compound alone, no cisplatin): no change was found in the Cre and BUN levels
inhibition at 10 µM (recombinant CCBL1 (KAT1)): 71.9%

O=C(CCc1ccc(O)cc1)c1c(O)cc(O)cc1O [PHLORETIN, 3-(4-hydroxyphenyl)-1-(2,4,6-trihydroxyphenyl) propan-1-one]
inhibition at 10 µM (recombinant CCBL1 (KAT1)): 83%
CCBL1 (KAT1) inhibitory activity, in words (recombinant CCBL1 (KAT1)): has a CCBL1 inhibitory function

N.N.[Cl][Pt][Cl] [cisplatin]
BUN level in serum, cisplatin alone ([1]; cisplatin 20 mg/kg i.p. alone): increased the Cre and BUN levels
Cre level in serum, cisplatin alone ([1]; cisplatin 20 mg/kg i.p. alone): increased the Cre and BUN levels
body weight, cisplatin alone ([1]; cisplatin 20 mg/kg i.p. alone): reduced the body weight
relative kidney weight, cisplatin alone ([1]; cisplatin 20 mg/kg i.p. alone): increased the relative kidney weight
tumor size, cisplatin ([2]; cisplatin 20 mg/kg i.p.): reduced the tumor size
body weight, cisplatin alone [2, 7]: reduced the body weight
relative kidney weight, cisplatin alone [2, 7]: increased the relative kidney weight

CC(=O)c1c(O)cc(O)cc1O [compound X, 2,4,6-trihydroxyacetophenone]
LLC-PK1 cell death (cell viability) without cisplatin ([3]; cisplatin 0 μM): did not affect the LLC-PK1 cell death
cisplatin-induced renal tubular cell death (cell viability) ([3]; cisplatin 50 μM): prevented the cisplatin-induced renal tubular cell death in a dose dependent manner
BUN level in serum, compound administered alone [4]: no change in the Cre and BUN levels was found
Cre level in serum, compound administered alone [4]: no change in the Cre and BUN levels was found
injury of renal uriniferous tubular cells, compound alone (histopathology) [4]: does not injure renal uriniferous tubular cells
inhibitory activity to CCBL1 β elimination activity (recombinant human CCBL1): inhibited by the compound X in a concentration dependent manner
relative kidney weight ([1]; both cisplatin (20 mg/kg i.p.) and compound administered): did not increase the relative kidney weight
BUN level in serum [1]: reduces the Cre and BUN levels in a dose dependent manner
Cre level in serum [1]: reduces the Cre and BUN levels in a dose dependent manner
BAX level in kidney (immunoblotting) [1, 8]: decreased
Cleaved Caspase-3 level in kidney (immunoblotting) [1, 8]: decreased
cisplatin-induced renal tubular cell death (histopathological observation, PAS stain) ([1]; compound plus cisplatin): suppresses the cisplatin-induced renal tubular cell death in a dose dependent manner
tubular injury score ([1]; group of cisplatin and compound versus only cisplatin): lower tubular injury scores than the group of only cisplatin
inhibition at 10 µM (recombinant CCBL1 (KAT1)): 88.6%
body weight change [2, 9]: the body weight changed little
relative kidney weight [2, 9]: the relative kidney weight decreased
tumor size reduction by cisplatin when compound is co-administered ([2]; compound 100 mg/kg i.p. 30 minutes before cisplatin 20 mg/kg): this effect did not change
renal uriniferous tubular damage score ([2]; compound plus cisplatin versus cisplatin alone): reduces the renal uriniferous tubular damage score
BUN concentration in serum [2, 10]: reduced the increase in the cisplatin-induced BUN and Cre in a dose dependent manner
Cre concentration in serum [2, 10]: reduced the increase in the cisplatin-induced BUN and Cre in a dose dependent manner
cisplatin-induced tumor cell death (cell viability) [5]: did not affect the cisplatin-induced tumor cell death
cisplatin-induced tumor cell death (cell viability) [6]: did not affect the cisplatin-induced tumor cell death
